From the METLIN SMRT retention time set (Domingo-Almenara et al. 2019)

Assay: gradient 5% acetonitrile 3 min, to 50% in 2 min, to 85% in 15 min, held 3 min, 100 µL/min
Conditions: column: Zorbax Extend-C18 2.1 x 50 mm; eluents: water / acetonitrile, 0.1% formic acid
How it was run: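 Mixtures of ~100 pure standards were chromatographed on a Zorbax Extend-C18 column (2.1 × 50 mm, 1.8 μm) at 100 μL/min using water and acetonitrile, each with 0.1% formic acid. Detection used a quadrupole time-of-flight mass spectrometer in positive and negative ionization mode, and data collection spanned 3 months. Retention time was obtained from adduct peaks picked computationally and each checked manually.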

SMILES	RP-LC retention time
O=C(Cn1cnc2nc(N3CCC(C(=O)NC4CC4)CC3)sc2c1=O)Nc1ccc(F)c(F)c1	705 s
COCc1nc(C2CCN(C(=O)C3CCCC3)C2)no1 (stereo not drawn)	688 s
CC1CCN(CCNC(=O)c2nc(CCS(=O)(=O)c3ccc(F)cc3)no2)CC1	620 s
COc1cccc(N2CCn3c2nc2c3c(=O)n(CC(=O)O)c(=O)n2C)c1	702 s
O=S(=O)(Cc1ccccc1)N1CCCCC1c1nc(-c2ccccc2)n[nH]1 (stereo not drawn)	943 s
Cc1ccc2oc(-c3noc(C(=O)NCCCN4CCCC4)n3)c(C)c2c1	717 s
CCc1nc(N2CCC(C(=O)NCc3ccccc3C(F)(F)F)CC2)c2c(C)scc2n1	754 s
Cc1cccc(NC(=O)Nc2c(-c3ccc(F)cc3)nc3ccccn23)c1C	697 s
Cc1ccc(-n2ccc(=O)c(-c3nc(-c4ccccc4)no3)n2)cc1	888 s
COc1ccc(OC)c(NC(=O)c2[nH]c3cc(C)sc3c2CN(C)C)c1	692 s
Cc1nc(C)c(C(=O)N(Cc2ccccn2)c2nc3c(Cl)cccc3s2)s1	957 s
O=c1c2cc(-c3ccc4c(c3)OCO4)nn2ccn1Cc1nc(-c2cccc(F)c2)no1	1010 s
Cc1ccc(NC(=O)C2CCCN2S(=O)(=O)c2cc3c(cc2C)NC(=O)C(C)O3)cc1F (stereo not drawn)	860 s
O=C(Nc1cccc(F)c1)c1n[nH]nc1Nc1cccc(F)c1	1050 s
O=C(Nc1ccccc1)C1CCCN(c2nnc3ccc(Cl)cn23)C1 (stereo not drawn)	753 s
Cc1ccc(CCNC(=O)C2CCCN(c3nnc(C)c4c(C)n(-c5ccccc5)nc34)C2)cc1 (stereo not drawn)	762 s
C[C@H](CCC(=O)NCCS(=O)(=O)O)[C@H]1CC[C@H]2[C@@H]3CC[C@@H]4C[C@H](O)CC[C@]4(C)[C@H]3C[C@H](O)[C@]12C	724 s

SMILES	RP-LC retention time
O=C(CN1CCN(C(=O)Nc2ccc(Cl)cc2)CC1=O)NC1CCCC1	690 s
Cc1ccc(-c2csc(NC(=O)CN3CCN(C(=O)C4CCCO4)CC3)n2)cc1 (stereo not drawn)	681 s
COC(=O)c1ccc(C2Nc3ccc(C)cc3[C@H]3OCC[C@@H]23)cc1 (stereo partly drawn)	1050 s
Cc1cc(C)cc(NC(=O)C2CCN(S(C)(=O)=O)c3ccccc3O2)c1 (stereo not drawn)	976 s
CCCn1ncc(N2CCC(C(=O)Nc3ccc(OC)cc3OC)CC2)cc1=O	723 s
CCc1ccc(CNC(=O)Cn2ccc3c(=O)n(C)c(=O)n(C)c32)cc1	716 s
CCCN1C(=O)COc2ccc(-c3csc(NC(=O)CC)n3)cc21	861 s
COc1ccc(C2CC(=O)Nc3c(C(=O)O)cn(-c4ccc(F)cc4)c32)cc1OC (stereo not drawn)	734 s
CCn1cnnc1C1CCCN(C(=O)CCc2c[nH]c3ccccc23)C1 (stereo not drawn)	612 s
Cc1ccc(Oc2ccc(NS(=O)(=O)c3cccs3)cc2)nn1	687 s
CO[C@H]1C(=O)N(C(C)C)[C@H]1C1CCN(C(=O)Cn2ccnc2)CC1	562 s
CC1(C(=O)NCc2ccc(Cl)cc2)CN(S(C)(=O)=O)CC(=O)N1Cc1ccc(F)cc1 (stereo not drawn)	814 s
Cc1ccc(-c2noc(Cn3c(=O)n(C(C)C)c(=O)c4ccccc43)n2)cc1C	1220 s
CCCNC(=O)Cn1nc2cc(-c3ccccc3)nc(C)n2c1=O	766 s
COCCCNS(=O)(=O)c1ccccc1-c1nc(-c2cccc(F)c2)no1	1040 s
O=C(NC(c1ccccc1)c1nnc(-c2ccccc2Cl)o1)c1ccco1 (stereo not drawn)	908 s
